In publication PMC6432887 (Drug Design, Development and Therapy, 2019):

Tests used:
[1] = In vitro dissolution studies; type: physicochemical; details: phosphate buffer pH 6.8
[2] = Single-dose crossover bioavailability study, REP plasma levels by LC-MS/MS; type: in vivo, rabbits; details: male, albino, rabbit, po
[3] = cited from earlier work

percentage drug released ([1]; optimized formulae, alginate film and plain drug, within 30 minutes): 22.981%
release rate ([1]; within 10 minutes): 8.166%
release rate ([1]; within 15 minutes): 19.65%
AUC(0-inf) [2]: 95400 ± 7220 ng·h/mL
AUC(0-t) [2]: 93400 ± 5610 ng·h/mL
Cmax [2]: 31900 ± 1620 ng/mL
Tmax [2]: 1 ± 0.143 h
half-life [2]: 78.6 ± 7.02 min
k el [2]: 0.000147 s⁻¹
SMILES: CCOc1cc(CC(=O)N[C@@H](CC(C)C)c2ccccc2N2CCCCC2)ccc1C(=O)O [Plain REP, Repaglinide]
Biopharmaceutics Classification System (BCS) class [3]: class II
